The text below walks through data of the NIST ThermoML archive (doi:10.1016/j.tca.2009.03.004).

A short description of data set [1]: Molar enthalpy of transition or fusion. The settings on record: DSC.
For data set [2] the following is noted: DTA.

Numbers after ± are expanded uncertainties.

On to `CCCCCCCCOc1ccc(C=Nc2ccc(OCC)cc2)cc1` [4-ethoxy-N-[[4-(octyloxy)phenyl]methylene]benzenamine], for which the figures for the “Molar enthalpy of transition or fusion” value in data set [1] (Crystal) and in data set [1] (Nematic liquid crystal) were 40.4 ± 1.1 kJ/mol and 1.12 ± 0.13 kJ/mol, respectively. In addition, the Triple point temperature in data set [2] (Crystal) was found to be 373.95 ± 0.5 K; in data set [2] (Nematic liquid crystal), 395.55 ± 0.5 K.

With `CCCCCCCCOc1ccc(C=Nc2ccc(OCCCC)cc2)cc1` [benzenamine, 4-butoxy-N-[[4-(octyloxy)phenyl]methylene]-], the “Molar enthalpy of transition or fusion” value was determined as 44.4 ± 1.2 kJ/mol in data set [1] (Crystal) and 1.8 ± 0.15 kJ/mol in data set [1] (Nematic liquid crystal). For the same molecule, the results for the Triple point temperature in data set [2] (Crystal) and in data set [2] (Nematic liquid crystal) were 380.75 ± 0.5 K and 389.55 ± 0.5 K, respectively.
